Experimental data published in US9637496B2, “Substituted 7-azabicycles and their use as orexin receptor modulators” (priority 2013, dated 2017).
pKi: −log10 of the molar value. Read-outs that look alike come from different tables or passages of the source.

Experiments:
human orexin 1 receptor = human orexin 1 receptor (Homo sapiens (Human), UniProt O43613); experiment: Human orexin 1 receptor radioligand binding (competitive binding, CHO membranes)
rat orexin 1 receptor = rat orexin 1 receptor (Rattus norvegicus (Rat), UniProt P56718); experiment: Rat orexin 1 receptor radioligand binding (competitive binding, HEK293 membranes)
human orexin 2 receptor = human orexin 2 receptor (Homo sapiens (Human), UniProt O43614); experiment: Human orexin 2 receptor radioligand binding ([3H]-EMPA competition, HEK293 membranes)
[1] = human orexin 2 receptor, Table 2, averages from between 2-20 runs, read-out: hOX2 Ki
[2] = Table 2, further testing, averages from 2-20 runs, read-out: hOX1 Ki
[3] = Table 2, further testing, averages from 2-20 runs, read-out: rOX1 Ki
[4] = Table 2, further testing, averages from 2-20 runs, read-out: hOX2 Ki
[5] = human orexin 1 receptor, Table 2, averages from between 2-20 runs, read-out: hOX1 Ki
[6] = rat orexin 1 receptor, Table 2, averages from between 2-20 runs, read-out: rOX1 Ki

Sequence of human orexin 1 receptor (O43613 whole entry): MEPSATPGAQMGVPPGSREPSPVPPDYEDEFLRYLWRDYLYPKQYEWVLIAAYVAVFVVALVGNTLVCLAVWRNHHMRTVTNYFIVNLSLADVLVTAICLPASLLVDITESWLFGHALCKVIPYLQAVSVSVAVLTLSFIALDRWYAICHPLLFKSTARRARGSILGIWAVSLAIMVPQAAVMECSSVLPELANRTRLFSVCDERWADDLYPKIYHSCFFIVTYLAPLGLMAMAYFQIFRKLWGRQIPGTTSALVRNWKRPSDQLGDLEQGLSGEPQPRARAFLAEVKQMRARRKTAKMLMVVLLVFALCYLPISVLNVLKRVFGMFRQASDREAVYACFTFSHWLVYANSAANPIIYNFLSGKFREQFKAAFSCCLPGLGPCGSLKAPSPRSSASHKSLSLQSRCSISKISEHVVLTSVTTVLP
Sequence of human orexin 2 receptor (O43614 whole entry): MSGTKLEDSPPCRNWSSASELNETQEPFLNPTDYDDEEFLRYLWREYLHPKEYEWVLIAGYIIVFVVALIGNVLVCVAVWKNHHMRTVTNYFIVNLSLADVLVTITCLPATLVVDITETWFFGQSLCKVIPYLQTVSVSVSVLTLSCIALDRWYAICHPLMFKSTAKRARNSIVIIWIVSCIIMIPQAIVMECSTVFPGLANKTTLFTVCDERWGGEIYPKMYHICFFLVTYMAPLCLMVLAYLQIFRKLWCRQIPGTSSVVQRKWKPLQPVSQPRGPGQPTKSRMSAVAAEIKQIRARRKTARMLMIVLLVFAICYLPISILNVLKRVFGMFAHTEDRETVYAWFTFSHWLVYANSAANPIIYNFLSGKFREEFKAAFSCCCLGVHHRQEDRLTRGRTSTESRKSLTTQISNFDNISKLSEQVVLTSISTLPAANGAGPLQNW
Sequence of rat orexin 1 receptor (P56718 whole entry): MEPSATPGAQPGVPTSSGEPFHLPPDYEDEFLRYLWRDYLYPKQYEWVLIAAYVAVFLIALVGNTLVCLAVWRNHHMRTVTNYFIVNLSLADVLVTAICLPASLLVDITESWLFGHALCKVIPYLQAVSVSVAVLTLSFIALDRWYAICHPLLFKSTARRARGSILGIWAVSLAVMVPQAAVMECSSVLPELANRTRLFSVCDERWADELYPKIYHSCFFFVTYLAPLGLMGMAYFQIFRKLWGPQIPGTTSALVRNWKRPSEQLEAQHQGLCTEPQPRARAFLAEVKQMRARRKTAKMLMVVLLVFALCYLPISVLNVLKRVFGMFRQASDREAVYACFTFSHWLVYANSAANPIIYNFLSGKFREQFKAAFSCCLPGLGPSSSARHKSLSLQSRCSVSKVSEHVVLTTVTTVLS

Row | Structure (SMILES) | pKi (human orexin 2 receptor; [1]) | pKi (human orexin 1 receptor; [5]) | pKi (rat orexin 1 receptor; [6]) | other results
1 | O=C(c1ncccc1-c1ncccn1)N1[C@@H]2CC[C@H]1[C@H](Nc1ccc(C(F)(F)F)cn1)C2 [Example 381, (3-(pyrimidin-2-yl)pyridin-2-yl)((1S,2R,4R)-2-((5-(trifluoromethyl)pyridin-2-yl)amino)-7-azabicyclo[2.2.1]heptan-7-yl)methanone] | 6.10 |  |  | pKi (human orexin 1 receptor; read-out: hOX1 Ki): 7.60; pKi (rat orexin 1 receptor; read-out: rOX1 Ki): 7.60
2 | Cc1ccc(C(=O)N2[C@@H]3CC[C@H]2[C@H](Nc2ncc(C(F)(F)F)cc2F)C3)c(-n2nccn2)n1 [Example 452, ((1S,2R,4R)-2-((3-fluoro-5-(trifluoromethyl)pyridin-2-yl)amino)-7-azabicyclo[2.2.1]heptan-7-yl)(6-methyl-2-(2H-1,2,3-triazol-2-yl)pyridin-3-yl)methanone] |  |  |  | pKi (human orexin 1 receptor; [2]): 6.65; pKi (rat orexin 1 receptor; [3]): 6.75; pKi (human orexin 2 receptor; [4]): 6.36
3 | N#Cc1ccc(N[C@@H]2C[C@H]3CC[C@@H]2N3C(=O)c2cccc(F)c2-n2nccn2)nc1 [Example 390, 6-(((1S,2R,4R)-7-(3-fluoro-2-(2H-1,2,3-triazol-2-yl)benzoyl)-7-azabicyclo[2.2.1]heptan-2-yl)amino)nicotinonitrile] | < 5.00 | 5.85 | 5.82 | 
4 | O=C(c1c(F)cccc1-c1ncccn1)N1[C@@H]2CC[C@H]1[C@H](Nc1ncc(C(F)(F)F)cn1)C2 [Example 416, (2-fluoro-6-(pyrimidin-2-yl)phenyl)((1S,2R,4R)-2-((5-(trifluoromethyl)pyrimidin-2-yl)amino)-7-azabicyclo[2.2.1]heptan-7-yl)methanone] | 5.68 | 7.07 | 6.86 | 
5 | [2H]C1(Nc2cnc(C(F)(F)F)cn2)CC2CCC1N2C(=O)c1cccc(F)c1-c1ncccn1 [Example 395, (3-fluoro-2-(pyrimidin-2-yl)phenyl)((1S,2R,4R)-(2-^2H)-((5-(trifluoromethyl)pyrazin-2-yl)amino)-7-azabicyclo[2.2.1]heptan-7-yl)methanone] |  |  |  | pKi (human orexin 1 receptor): 7.85; pKi (rat orexin 1 receptor): 7.77; pKi (human orexin 2 receptor): 6.05
6 | Cc1cnc(-n2nccn2)c(C(=O)N2[C@@H]3CC[C@H]2[C@H](Nc2ncc(C(F)(F)F)cc2F)C3)c1 [Example 453, ((1S,2R,4R)-2-((3-fluoro-5-(trifluoromethyl)pyridin-2-yl)amino)-7-azabicyclo[2.2.1]heptan-7-yl)(5-methyl-2-(2H-1,2,3-triazol-2-yl)pyridin-3-yl)methanone] |  |  |  | pKi (human orexin 1 receptor; [2]): 6.52; pKi (rat orexin 1 receptor; [3]): 6.68; pKi (human orexin 2 receptor; [4]): < 5.00
7 | O=C(c1cccc(F)c1-n1nccn1)N1C2CCC1C(Oc1ccc(C(F)(F)F)cn1)C2 (racemic) [Example 423] |  |  |  | pKi (human orexin 1 receptor): 6.76; pKi (rat orexin 1 receptor): 6.69; pKi (human orexin 2 receptor): 5.31
8 | Cc1cccc(C(=O)N2[C@@H]3CC[C@H]2[C@H](Nc2cnc(Br)cn2)C3)c1-c1ncccn1 [Example 310, ((1S,2R,4R)-2-((5-bromopyrazin-2-yl)amino)-7-azabicyclo[2.2.1]heptan-7-yl)(3-methyl-2-(pyrimidin-2-yl)phenyl)methanone] | 6.42 | 8.15 | 8.05 | 
9 | O=C(c1cccc(F)c1-c1ncco1)N1[C@@H]2CC[C@H]1[C@H](Nc1ccc(C(F)(F)F)cn1)C2 [Example 298, (3-fluoro-2-(oxazol-2-yl)phenyl)((1S,2R,4R)-2-((5-(trifluoromethyl)pyridin-2-yl)amino)-7-azabicyclo[2.2.1]heptan-7-yl)methanone] | 6.30 | 7.74 | 7.74 | 
10 | O=C(c1c(F)cccc1-n1nccn1)N1[C@@H]2CC[C@H]1[C@H](Nc1ccc(C(F)(F)F)cn1)C2 [Example 370, (2-fluoro-6-(2H-1,2,3-triazol-2-yl)phenyl)((1S,2R,4R)-2-((5-(trifluoromethyl)pyridin-2-yl)amino)-7-azabicyclo[2.2.1]heptan-7-yl)methanone] | 6.29 | 6.85 | 6.98 | 
11 | O=C(c1ccccc1-c1ncc(F)cn1)N1C2CCC1C(Oc1ccc(C(F)(F)F)cn1)C2 (racemic) [Example 433] | 5.60 |  |  | pKi (human orexin 1 receptor): 7.14; pKi (rat orexin 1 receptor): 6.97
12 | O=C(c1ccccc1-c1ncccn1)N1[C@@H]2CC[C@H]1[C@H](Nc1ncc(C(F)(F)F)cc1Cl)C2 [Example 386, ((1S,2R,4R)-2-((3-chloro-5-(trifluoromethyl)pyridin-2-yl)amino)-7-azabicyclo[2.2.1]heptan-7-yl)(2-(pyrimidin-2-yl)phenyl)methanone] | 6.30 | 7.54 | 7.70 | 
13 | Cc1cnc(C(=O)N2[C@@H]3CC[C@H]2[C@H](Nc2ncc(C(F)(F)F)cc2F)C3)c(-c2ncccn2)c1 [Example 457, ((1S,2R,4R)-2-((3-fluoro-5-(trifluoromethyl)pyridin-2-yl)amino)-7-azabicyclo[2.2.1]heptan-7-yl)(5-methyl-3-(pyrimidin-2-yl)pyridin-2-yl)methanone] |  |  |  | pKi (human orexin 1 receptor; [2]): 7.01; pKi (rat orexin 1 receptor; [3]): 7.26; pKi (human orexin 2 receptor; [4]): 5.04
14 | Cc1cccc(C(=O)N2[C@@H]3CC[C@H]2[C@H](Nc2ncc(C(F)(F)F)cc2F)C3)c1-c1ncccn1 [Example 462, ((1S,2R,4R)-2-((3-fluoro-5-(trifluoromethyl)pyridin-2-yl)amino)-7-azabicyclo[2.2.1]heptan-7-yl)(3-methyl-2-(pyrimidin-2-yl)phenyl)methanone] |  |  |  | pKi (human orexin 1 receptor; [2]): 7.51; pKi (rat orexin 1 receptor; [3]): 7.74; pKi (human orexin 2 receptor; [4]): 6.47
15 | Cc1ccc(-c2ncccn2)c(C(=O)N2[C@@H]3CC[C@H]2[C@H](Nc2ncc(C(F)(F)F)cc2F)C3)n1 [Example 456, ((1S,2R,4R)-2-((3-fluoro-5-(trifluoromethyl)pyridin-2-yl)amino)-7-azabicyclo[2.2.1]heptan-7-yl)(6-methyl-3-(pyrimidin-2-yl)pyridin-2-yl)methanone] |  |  |  | pKi (human orexin 1 receptor; read-out: hOX1 Ki): 7.32; pKi (rat orexin 1 receptor; read-out: rOX1 Ki): 7.17; pKi (human orexin 2 receptor; [4]): 6.34
16 | O=C(c1ccc(F)cc1-c1ncccn1)N1C2CCC1C(Oc1ccc(C(F)(F)F)cn1)C2 (racemic) [Example 430] | < 5.00 | 6.52 | 6.61 | 
17 | N#Cc1ccc(N[C@@H]2C[C@H]3CC[C@@H]2N3C(=O)c2cccc(F)c2-c2ncccn2)nc1 [Example 392, 6-(((1S,2R,4R)-7-(3-fluoro-2-(pyrimidin-2-yl)benzoyl)-7-azabicyclo[2.2.1]heptan-2-yl)amino)nicotinonitrile] | < 5.00 | 5.85 | 6.00 | 
18 | O=C(c1cc(F)ccc1-c1ncccn1)N1[C@@H]2CC[C@H]1[C@H](Nc1ccc(C(F)(F)F)cn1)C2 [Example 371, (5-fluoro-2-(pyrimidin-2-yl)phenyl)((1S,2R,4R)-2-((5-(trifluoromethyl)pyridin-2-yl)amino)-7-azabicyclo[2.2.1]heptan-7-yl)methanone] | 6.21 | 7.57 | 7.38 | 
19 | O=C(c1ncccc1-c1ncccn1)N1[C@@H]2CC[C@H]1[C@H](Nc1cnc(C(F)(F)F)cn1)C2 [Example 406, (3-(pyrimidin-2-yl)pyridin-2-yl)((1S,2R,4R)-2-((5-(trifluoromethyl)pyrazin-2-yl)amino)-7-azabicyclo[2.2.1]heptan-7-yl)methanone] | 6.01 | 7.36 | 7.23 | 
20 | O=C(c1cccc(F)c1-c1ncc(F)cn1)N1[C@@H]2CC[C@H]1[C@H](Nc1ncc(C(F)(F)F)cc1F)C2 [Example 463, (3-fluoro-2-(5-fluoropyrimidin-2-yl)phenyl)((1S,2R,4R)-2-((3-fluoro-5-(trifluoromethyl)pyridin-2-yl)amino)-7-azabicyclo[2.2.1]heptan-7-yl)methanone] |  |  |  | pKi (human orexin 1 receptor; read-out: hOX1 Ki): 7.30; pKi (rat orexin 1 receptor; read-out: rOX1 Ki): 7.28; pKi (human orexin 2 receptor; [4]): 5.72
21 | O=C(c1cccc(F)c1-c1ccccn1)N1[C@@H]2CC[C@H]1[C@H](Nc1cnc(C(F)(F)F)cn1)C2 [Example 408, (3-fluoro-2-(pyridin-2-yl)phenyl)((1S,2R,4R)-2-((5-(trifluoromethyl)pyrazin-2-yl)amino)-7-azabicyclo[2.2.1]heptan-7-yl)methanone] | 6.82 |  |  | pKi (human orexin 1 receptor; read-out: hOX1 Ki): 7.72; pKi (rat orexin 1 receptor; read-out: rOX1 Ki): 7.92
22 | Cc1cccc(C(=O)N2[C@@H]3CC[C@H]2[C@H](Nc2ccc(Br)cn2)C3)c1-c1ncco1 [Example 302, ((1S,2R,4R)-2-((5-bromopyridin-2-yl)amino)-7-azabicyclo[2.2.1]heptan-7-yl)(3-methyl-2-(oxazol-2-yl)phenyl)methanone] | 6.73 |  |  | pKi (human orexin 1 receptor; read-out: hOX1 Ki): 8.30; pKi (rat orexin 1 receptor; read-out: rOX1 Ki): 8.30
23 | O=C(c1cccc(F)c1-c1ncco1)N1[C@@H]2CC[C@H]1[C@H](Nc1ncc(C(F)(F)F)cc1F)C2 [Example 454, (3-fluoro-2-(oxazol-2-yl)phenyl)((1S,2R,4R)-2-((3-fluoro-5-(trifluoromethyl)pyridin-2-yl)amino)-7-azabicyclo[2.2.1]heptan-7-yl)methanone] |  |  |  | pKi (human orexin 1 receptor; [2]): 7.64; pKi (rat orexin 1 receptor; [3]): 7.74; pKi (human orexin 2 receptor; [4]): 6.23
24 | Cc1cnc(C(=O)N2[C@@H]3CC[C@H]2[C@H](Nc2ncc(C(F)(F)F)cc2F)C3)c(-n2nccn2)c1 [Example 420, ((1S,2R,4R)-2-((3-fluoro-5-(trifluoromethyl)pyridin-2-yl)amino)-7-azabicyclo[2.2.1]heptan-7-yl)(5-methyl-3-(2H-1,2,3-triazol-2-yl)pyridin-2-yl)methanone] | 6.05 | 6.94 | 7.00 | 
25 | O=C(c1cccc(F)c1-n1nccn1)N1[C@@H]2CC[C@H]1[C@H](Nc1ncc(Br)cn1)C2 [Example 317, ((1S,2R,4R)-2-((5-bromopyrimidin-2-yl)amino)-7-azabicyclo[2.2.1]heptan-7-yl)(3-fluoro-2-(2H-1,2,3-triazol-2-yl)phenyl)methanone] | 5.80 | 7.15 | 7.51 | 
26 | O=C(c1cccc(F)c1-c1ncco1)N1C2CCC1C(Oc1ccc(C(F)(F)F)cn1)C2 (racemic) [Example 436] |  | 6.94 | 6.84 | pKi (human orexin 2 receptor): 5.46
27 | Cc1cccc(C(=O)N2C3CCC2C(Oc2cnc(C(F)(F)F)cn2)C3)c1-n1nccn1 (racemic) [Example 444] |  |  |  | pKi (human orexin 1 receptor): 6.63; pKi (rat orexin 1 receptor): 6.78; pKi (human orexin 2 receptor): 5.38
